Test results: patent publication US5034544A, “Antiviral 2,3-bis-(aryl)-3-chloropropenal compounds” (priority 1989, dated 1991)
Where “and” joins values, the source holds several entries; their conditions need not be identical. Equal values may be shown once. Read-outs that look alike come from different tables or passages of the source.

How the values were obtained:
[1] = system: human immunodeficiency virus (HIV); assay: microbe, parasite or virus in culture
Experimental: (§1) The assay basically involves the killing of T4 lymphocytes by HIV in cell cultures. Small amounts of HIV are added to cells, and at least two complete cycles of virus reproduction are necessary to obtain the required killing. Agents which interact with virions, cells, or virus gene-products to interfere with viral activities will protect cells from cytolysis. All tests are compared with a positive control done at the same time under identical conditions. The positive control in these experiments was AZT.
(§2) Harvest experiments were conducted in which HIV infected cell cultures were post-treated with the compound of Example 1 at a number of concentrations. T4 lymphocytes (CEM cell line) are exposed to HIV at a virus to cell ratio approximately 0.05, and plated along with noninfected control cells in 96-well microtiter plates. 2,3-Bis-(3,4-dimethoxyphenyl)-3-chloropropenal was dissolved in dimethyl sulfoxide, then diluted 1:200 in cell culture medium. Further dilutions (half-log10) are prepared before adding to an equal volume of medium containing either infected or noninfected cells. Plates are incubated at 37° C. in a 5% carbon dioxide atmosphere for 6 days. Triphenyl tetrazolium chloride (1% weight by volume) is added to each well and cultures are further incubated to allow color development of viable cells. Individual wells are analyzed spectrophotometrically to quantitate color production and are viewed microscopically for detection of viable cells and confirmation of protective activity. Drug-treated virus-infected cells are compared with drug-treated noninfected cells and other appropriate controls (untreated infected and untreated noninfected cells, drug-containing wells without cells, etc.) on the same plate. Data are reviewed in comparison with other tests done at the same time, and a determination about antiviral activity is made.
(§3) The solid line connecting the diamond symbols depicts the percentage of surviving HIV-infected cells treated with the present test sample at the indicated concentration relative to uninfected, untreated controls. This line represents the in-vitro anti-HIV activity of the sample. The dashed line connecting the square symbols depicts the percentage of surviving uninfected cells treated with the present compound relative to the same uninfected, untreated controls. This line represents the in-vitro growth inhibitory properties. The viral cytopathic effect in this experiment is indicated by a dotted reference line. This line show the extent of destruction of cells by the virus in the absence of treatment and is used as a quality control parameter. Values of this parameter […] 50% are considered acceptable in the current protocol. Reference line at 50% is depicted as alternating dots and dashes.

[2] = system: T4 lymphocytes (CEM cell line); assay: in-vitro growth inhibition / cytotoxicity in noninfected T4 lymphocytes (UNINFECTED CULTURE); format: cell-based; settings: for cytotoxicity to uninfected cells (in words): visual / microscopic; for IC50: Homo sapiens, CCRF-CEM, uninfected CEM cells; for Response (%), uninfected culture (surviving uninfected cells, % of uninfected untreated control): 6 days, Tables 1-3 = separate experiments, 8640 min
Experimental: as §1, §2, §3
(§4) Also, every attempt was made to reduce variability in the assay procedure set forth hereinabove and the values for EC50, IC50 and Therapeutic Index (TI) were determined within experimental limitations.

[3] = as above; format: cell-based; settings: human, cem cells, 6 days, Table 4, read-out: Response (%), uninfected culture (surviving uninfected cells, % of uninfected untreated control)
Experimental: as §1, §2, §3, §4

[4] = Human immunodeficiency virus 1, CCRF-CEM, in Homo sapiens, 144 h, read-out: Response (%), infected culture (surviving HIV-infected cells, % of uninfected untreated control)

Question: With COc1ccc(C(Cl)=C(C=O)c2ccc(OC)cc2)cc1 [2,3-di-(4-methoxyphenyl)-3-chloro-acrylaldehyde, reference compound] as the molecule, how does the “anti-HIV activity in cell culture (in words)” value [1] read?
Answer: found unacceptable for further preclinical consideration

Question: Which “cytotoxicity to uninfected cells (in words)” value ([2]; uninfected culture) does the source give for Cc1cn([C@H]2C[C@H](N=[N+]=[N-])[C@@H](CO)O2)c(=O)[nH]c1=O [AZT, azidothymidine, reference compound] here?
Answer: exhibited microscopic cytotoxicity to uninfected cells

Question: Which “selectivity compared to AZT (in words)” value [1] does the source give for COc1ccc(C(Cl)=C(C=O)c2ccc(OC)c(OC)c2)cc1OC [Example 1, 2,3-Bis-(3,4-Dimethoxyphenyl)-3-Chloropropenal] here?
Answer: pronounced at the reported concentrations

Question: What about the “selectivity, infected vs. uninfected cells (in words)” value [1] of the same molecule?
Answer: selective, exhibiting toxicity to infected cells, yet not toxic towards normal cells or cells free of virus

Question: What about the viability at 0.0266 µg/mL [1, 4] of the same molecule?
Answer: 6.9%

Question: What about the viability at 0.0733 µM [1, 4] of the same molecule?
Answer: 18.5%

Question: What about the viability at 0.084 µg/mL [1, 4] of the same molecule?
Answer: 6.8%

Question: What about the viability at 0.231 µM [1, 4] of the same molecule?
Answer: 18%

Question: And the viability at 0.265 µg/mL [1, 4]?
Answer: 5.4%

Question: What about the viability at 0.266 µg/mL [1, 4] of the same molecule?
Answer: 8.2%

Question: What about the viability at 0.732 µM [1, 4] of the same molecule?
Answer: 18.8%

Question: And the viability at 0.839 µg/mL [1, 4]?
Answer: 7.2%

Question: What about the viability at 2.31 µM [1, 4] of the same molecule?
Answer: 19.9%

Question: And the viability at 2.65 µg/mL [1, 4]?
Answer: 6.6%

Question: What about the viability at 7.31 µM [1, 4] of the same molecule?
Answer: 60.2%

Question: And the viability at 23.1 µM [1, 4]?
Answer: 79.5%

Question: What about the viability at 26.4 µg/mL [1, 4] of the same molecule?
Answer: 84.6%

Question: What about the viability at 73 µM [1, 4] of the same molecule?
Answer: 76.2%

Question: And the viability at 83.7 µg/mL [1, 4]?
Answer: 94.8%

Question: What about the viability at 230 µM [1, 4] of the same molecule?
Answer: 75.4%

Question: What about the EC50 ([1]; Human immunodeficiency virus 1, CCRF-CEM, read-out: EC50 (effective kill concentration for 50% of the experimental virus)) of the same molecule?
Answer: ~15.6 mg/L

Question: What about the EC50 ([1]; Human immunodeficiency virus 1, CCRF-CEM, read-out: EC50 (molar value)) of the same molecule?
Answer: 5.45 µM

Question: What about the “TI50 (therapeutic index)” value ([1]; human, cem cells, 8640 min) of the same molecule?
Answer: > 4.22×10^+1

Question: What about the viability at 144 h, 230 µM ([3]; dose 2.30 × 10^-4 Molar) of the same molecule?
Answer: 77.3%

Question: And the viability at 144 h, 23.1 µM ([3]; dose 2.31 × 10^-5 Molar)?
Answer: 90.2%

Question: And the viability at 144 h, 2.31 µM ([3]; dose 2.31 × 10^-6 Molar)?
Answer: 92.7%

Question: And the viability at 144 h, 0.231 µM ([3]; dose 2.31 × 10^-7 Molar)?
Answer: 104%

Question: And the viability at 144 h, 73 µM ([3]; dose 7.30 × 10^-5 Molar)?
Answer: 83.5%

Question: And the viability at 144 h, 7.31 µM ([3]; dose 7.31 × 10^-6 Molar)?
Answer: 94.3%

Question: What about the viability at 144 h, 0.732 µM ([3]; dose 7.32 × 10^-7 Molar) of the same molecule?
Answer: 96.5%

Question: And the viability at 144 h, 0.0733 µM ([3]; dose 7.33 × 10^-8 Molar)?
Answer: 101%

Question: And the IC50 ([2]; FIG. 1 / Table 1 experiment, read-out: IC50 (inhibition concentration required for 50% of cell growth))?
Answer: > 83.7 mg/L

Question: And the IC50 ([2]; FIG. 4 / Table 4 experiment, read-out: IC50 (molar value), cell growth)?
Answer: > 230 µM

Question: And the “Response (%), uninfected culture (surviving uninfected cells, % of uninfected untreated control)” value (“Response (%), uninfected culture” below) ([2]; dose 2.64 × 10^+1 μg/ml)?
Answer: 112.4% and 109.3% and 115.9%

Question: What about the “Response (%), uninfected culture” value ([2]; dose 2.65 × 10^+0 μg/ml) of the same molecule?
Answer: 103.5% and 106.3% and 108.3%

Question: And the “Response (%), uninfected culture” value ([2]; dose 2.65 × 10^-1 μg/ml)?
Answer: 102.7% and 99.7% and 103.4%

Question: And the “Response (%), uninfected culture” value ([2]; dose 2.66 × 10^-2 μg/ml)?
Answer: 99.2% and 104.4%

Question: And the “Response (%), uninfected culture” value ([2]; dose 8.37 × 10^+1 μg/ml)?
Answer: 112.2% and 91.9% and 114.3%

Question: And the “Response (%), uninfected culture” value ([2]; dose 8.38 × 10^+0 μg/ml)?
Answer: 106.0% and 103.1% and 113.1%

Question: What about the “Response (%), uninfected culture” value ([2]; dose 8.39 × 10^-1 μg/ml) of the same molecule?
Answer: 105.6% and 101.2% and 107.0%

Question: And the “Response (%), uninfected culture” value ([2]; dose 8.40 × 10^-2 μg/ml)?
Answer: 104.5% and 103.1% and 99.6%

Question: What about the “cell growth in uninfected culture (in words)” value ([2]; uninfected culture, Tables 1-4) of the same molecule?
Answer: cell growth actually increased in most of these test results

Question: And the “cytotoxicity to uninfected cells (in words)” value ([2]; uninfected culture)?
Answer: no significant visual or microscopic cytotoxicity was observed in the uninfected culture

Question: For O=CC(=C(Cl)c1ccc2c(c1)OCO2)c1ccc2c(c1)OCO2 [Example 3, 2,3-Bis-(3,4-Methylenedioxyphenyl)-3-Chloropropenal], which “anti-HIV activity in cell culture (in words)” value [1] is on record?
Answer: produced mixed results under the experimental assay procedure reported hereinabove, the results clearly indicated antiviral activity

Question: And the “antiviral activity relative to 2,3-bis-(3,4-dimethoxyphenyl)-3-chloropropenal (in words)” value [1]?
Answer: significantly less than that of the structurally analogous test compound
